Measurements as given in patent US12435066B2, “Substituted tricyclic compounds” (LUPIN LIMITED, priority 2019, dated 2025).

Key:
hSOS1 and hKRASG12C = target: T1, hSOS1 and hKRASG12C (Homo sapiens, UniProt Q07889); assay: biochemical
T1 sequence (Q07889 564-1049): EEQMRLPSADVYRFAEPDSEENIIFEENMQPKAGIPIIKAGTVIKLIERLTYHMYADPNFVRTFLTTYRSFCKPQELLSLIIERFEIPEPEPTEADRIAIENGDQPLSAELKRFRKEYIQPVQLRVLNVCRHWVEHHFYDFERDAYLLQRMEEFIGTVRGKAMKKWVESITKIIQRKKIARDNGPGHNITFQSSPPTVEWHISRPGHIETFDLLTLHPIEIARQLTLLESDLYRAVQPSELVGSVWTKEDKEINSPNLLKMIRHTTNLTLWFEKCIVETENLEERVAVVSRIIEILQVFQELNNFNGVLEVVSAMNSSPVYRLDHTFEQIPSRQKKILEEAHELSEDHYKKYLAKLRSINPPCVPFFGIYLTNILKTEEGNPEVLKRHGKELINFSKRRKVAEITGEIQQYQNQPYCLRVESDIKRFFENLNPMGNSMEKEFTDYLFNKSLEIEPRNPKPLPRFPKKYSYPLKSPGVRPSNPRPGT

[1] = target: T2, hSOS1 mediated nucleotide exchange on hKRASG12C (Homo sapiens, UniProt Q07889); assay: biochemical
T2 sequence (Q07889 564-1049): T1 sequence (Q07889 564-1049)
Experimental: Example-127: Guanine Nucleotide Exchange Assay (GNEA)
GNEA assay was conducted to evaluate the effects of compounds on the nucleotide exchange on hKRASG12C mediated by hSOS1. Inhibitory effect of compounds on HIS-hSOS1, 564-1049aa mediated GTP loading onto GST-hKRASG12C, 1-169aa both expressed and purified in-house was assessed using HTRF detection technology in biochemical assay. Compounds were pre-incubated with hSOS1 working solution containing 10-50 nM hSOS1 and 200 nM EDA-GTP-DY-647P1 (Custom manufactured, Jena Biosciences) per well of a 384 well plate (Perkin Elmer, Cat #6007290) for 10 min at 20° C. in the assay buffer containing 10 mM HEPES, pH 7.4, 150 mM NaCl, 5 mM MgCl2, 1 mM DTT, 0.05% BSA fraction V and 0.0025% Igepal. Reaction was initiated by adding working solution of hKRASG12C containing 25-125 nM hKRASG12C and MAb Anti-GST-Tb (#61GSTTLA, Cisbio BioAssays) in assay buffer. Total assay volume was 15 μL. Reaction was continued for 30-60 min at 20° C. HTRF signal was recorded in PHERAStar microplate reader. Ratio of signal obtained at 665 nm and 620 nm was used to compute the percent inhibition of compound as follows.
Where, Positive control=hSOS1+EDA-GTP-DY-647P1+hKRASG12C+MAb Anti-GST-Tb Negative control=EDA-GTP-DY-647P1+hKRASG12C+MAb Anti-GST-Tb

pERK in DLD1 cells = assay: ERK phosphorylation assay after EGF stimulation; type: cell-based; conditions: Homo sapiens, DLD-1, compound 2 h, 200 ng/ml hEGF 5 minutes, alphascreen pERK, read-out: ERK phosphorylation inhibition IC50
Experimental: Example-128: ERK Phosphorylation Assay Protocol
Compounds were tested for their ability to inhibit pERK after EGF stimulation in DLD1 cells. Cells were seeded at 0.2 million cells per well in 96 well cell binding tissue culture plate in 100 μL complete media and were allowed to settle overnight (16 to 20 h). On the following day, cells were treated with various concentrations of test compounds for 2 h followed by stimulation with 200 ng/ml hEGF (diluted in PBS) for 5 minutes. Cells were then washed once with PBS and lysed in freshly prepared lysis buffer (provided with alphascreen surefire ERK1/2 p-T202/Y204 assay kit, cat no: TGRESB10K, Perkin Elmer). Lysis was carried out in plate shaker for 10-15 mins. Lysate was transferred to […] white opti-plate (Perkin Elmer) and alphascreen for pERK was carried out as per manufacturer's instructions. Plate was read after 2 h incubation in plate shaker at […] 300 RPM, 25-28° C.

| Compound | IC50 (hSOS1 and hKRASG12C) [nM] | IC50 [1] [nM] | IC50 (pERK in DLD1 cells) [nM] |
| --- | --- | --- | --- |
| COCC1(O)CCN(c2cc3c(N[C@H](C)c4cccc(C(F)(F)CCO)c4F)nc(C)nc3c3c2CCC3)CC1 [Compound 71, (R)-1-(4-((1-(3-(1,1-difluoro-3-hydroxypropyl)-2-fluorophenyl)ethyl)amino)-2-methyl-8,9-dihydro-7H-cyclopenta[h]quinazolin-6-yl)-4-(methoxymethyl) piperidin-4-ol] | 1 to 10 | 1 to 30 | 1 to 200 |
| COC[C@H]1CN(c2cc3c(N[C@H](C)c4cc(N)cc(C(F)(F)F)c4)nc(C)nc3c3c2CCC3)CCO1 [Compound 27, N—((R)-1-(3-amino-5-(trifluoromethyl)phenyl)ethyl)-6-((R)-2-(methoxymethyl)morpholino)-2-methyl-8,9-dihydro-7H-cyclopenta[h]quinazolin-4-amine] | 1 to 10 | – | 1 to 200 |
| COC1CCN(c2cc3c(N[C@H](C)c4cc(N)cc(C(F)(F)F)c4)nc(C)nc3c3c2CCC3)CC1 [Compound 1, (R)—N-(1-(3-amino-5-(trifluoromethyl)phenyl)ethyl)-6-(4-methoxypiperidin-1-yl)-2-methyl-8,9-dihydro-7H-cyclopenta[h]quinazolin-4-amine] | 11 to 20 | – | 1 to 200 |
| Cc1nc(N[C@H](C)c2cccc(C(F)(F)CO)c2F)c2cc(N3CC[C@@H](O)C3)c3c(c2n1)CCC3 [Compound 30, (R)-1-(4-(((R)-1-(3-(1,1-difluoro-2-hydroxyethyl)-2-fluorophenyl)ethyl)amino)-2-methyl-8,9-dihydro-7H-cyclopenta[h]quinazolin-6-yl)pyrrolidin-3-ol] | 1 to 10 | 1 to 30 | 1 to 200 |
| COCC1(O)CCN(c2cc3c(N[C@H](C)c4cccc(C(F)(F)COC)c4F)nc(C)nc3c3c2CCC3)CC1 [Compound 69, (R)-1-(4-((1-(3-(1,1-difluoro-2-methoxyethyl)-2-fluorophenyl)ethyl)amino)-2-methyl-8,9-dihydro-7H-cyclopenta[h]quinazolin-6-yl)-4-(methoxymethyl) piperidin-4-ol] | 1 to 10 | 1 to 30 | 1 to 200 |
| Cc1nc(N[C@H](C)c2cc(N)cc(C(F)(F)F)c2)c2cc(NC3COC3)c3c(c2n1)CCC3 [Compound 28, (R)—N^4-(1-(3-amino-5-(trifluoromethyl)phenyl)ethyl)-2-methyl-N^6-(oxetan-3-yl)-8,9-dihydro-7H-cyclopenta[h]quinazoline-4,6-diamine] | 1 to 10 | 31 to 70 | – |
| Cc1nc(N[C@H](C)c2cc(N)cc(C(F)(F)F)c2)c2cc(N3CCC(C)(O)C3)c3c(c2n1)CCC3 (single isomer, unassigned) [Compound 55a] | 11 to 20 | 31 to 70 | 1 to 200 |
| Cc1nc(N[C@H](C)c2cc(N)cc(C(F)(F)F)c2)c2cc(N3CC4(COC4)C3)c3c(c2n1)CC(C)(C)O3 [Compound 114, (R)—N-(1-(3-amino-5-(trifluoromethyl)phenyl)ethyl)-2,8,8-trimethyl-6-(2-oxa-6-azaspiro[3.3]heptan-6-yl)-8,9-dihydrofuro[2,3-h]quinazolin-4-amine] | 1 to 10 | 31 to 70 | 1 to 200 |
| Cc1nc(N[C@H](C)c2cc(N)cc(C(F)(F)F)c2)c2cc(N[C@H]3CCOC3)c3c(c2n1)CCC3 [Compound 19, N^4—((R)-1-(3-amino-5-(trifluoromethyl)phenyl)ethyl)-2-methyl-N^6—((S)-tetrahydrofuran-3-yl)-8,9-dihydro-7H-cyclopenta[h]quinazoline-4,6-diamine] | 1 to 10 | – | 1 to 200 |
| Cc1nc(N[C@H](C)c2cc(N)cc(C(F)(F)F)c2)c2cc(N3CC[C@](C)(O)C3)c3c(c2n1)CCC3 (single isomer, unassigned) [Compound 55b] | 11 to 20 | 71 to 130 | 1 to 200 |
| Cc1nc(N[C@H](C)c2cc(N)cc(C(F)(F)F)c2)c2cc(O[C@H]3CCOC3)c3c(c2n1)CCC3 [Compound 109, N—((R)-1-(3-amino-5-(trifluoromethyl)phenyl)ethyl)-2-methyl-6-(((S)-tetrahydrofuran-3-yl)oxy)-8,9-dihydro-7H-cyclopenta[h]quinazolin-4-amine] | 11 to 20 | – | 201 to 500 |
| Cc1nc(N[C@H](C)c2cc(N)cc(C(F)(F)F)c2)c2cc(N3CC[C@@H](O)C3)c3c(c2n1)CCC3 [Compound 44, (R)-1-(4-(((R)-1-(3-amino-5-(trifluoromethyl)phenyl)ethyl)amino)-2-methyl-8,9-dihydro-7H-cyclopenta[h]quinazolin-6-yl)pyrrolidin-3-ol] | 11 to 20 | – | 1 to 200 |
| Cc1nc(N[C@H](C)c2cc(N)cc(C(F)(F)F)c2)c2cc(C3CCN(C)CC3)c3c(c2n1)CCC3 [Compound 101, (R)—N-(1-(3-amino-5-(trifluoromethyl)phenyl)ethyl)-2-methyl-6-(1-methylpiperidin-4-yl)-8,9-dihydro-7H-cyclopenta[h]quinazolin-4-amine] | 1 to 10 | – | 1 to 200 |
| COCC1(O)CCN(c2cc3c(N[C@H](C)c4cccc(C(F)(F)CO)c4F)nc(C)nc3c3c2CCC3)CC1 [Compound 68, (R)-1-(4-((1-(3-(1,1-difluoro-2-hydroxyethyl)-2-fluorophenyl)ethyl)amino)-2-methyl-8,9-dihydro-7H-cyclopenta[h]quinazolin-6-yl)-4-(methoxymethyl)piperidin-4-ol] | 1 to 10 | 1 to 30 | 1 to 200 |
| Cc1cc(N)cc(C(C)Nc2nc(C)nc3c4c(c(N5CC6(COC6)C5)cc23)CCC4)c1 (single isomer, unassigned) [Compound 20, N-(1-(3-amino-5-methylphenyl)ethyl)-2-methyl-6-(2-oxa-6-azaspiro[3.3]heptan-6-yl)-8,9-dihydro-7H-cyclopenta[h]quinazolin-4-amine] | 1 to 10 | – | 201 to 500 |
| Cc1nc(N[C@H](C)c2cc(N)cc(C(F)(F)F)c2)c2cc(N3C[C@@H](C)O[C@@H](C)C3)c3c(c2n1)CCC3 [Compound 17, N—((R)-1-(3-amino-5-(trifluoromethyl)phenyl)ethyl)-6-((2S,6R)-2,6-dimethylmorpholino)-2-methyl-8,9-dihydro-7H-cyclopenta[h]quinazolin-4-amine] | 11 to 20 | – | – |
| Cc1nc(N[C@H](C)c2cc(N)cc(C(F)(F)F)c2)c2cc(O[C@H]3CCOC3)c3oc(C)cc3c2n1 [Compound 111] | 11 to 20 | – | 201 to 500 |
| Cc1nc(N[C@H](C)c2cc(N)cc(C(F)(F)F)c2)c2cc(NC3CCOCC3)c3c(c2n1)CCC3 [Compound 21, (R)—N^4-(1-(3-amino-5-(trifluoromethyl)phenyl)ethyl)-2-methyl-N^6-(tetrahydro-2H-pyran-4-yl)-8,9-dihydro-7H-cyclopenta[h]quinazoline-4,6-diamine] | 11 to 20 | – | 201 to 500 |
| Cc1nc(N[C@H](C)c2cc(N)cc(C(F)(F)F)c2)c2cc(O[C@H]3CCOC3)c3c(c2n1)CC(C)(C)O3 [Compound 112, N—((R)-1-(3-amino-5-(trifluoromethyl)phenyl)ethyl)-2,8,8-trimethyl-6-(((S)-tetrahydrofuran-3-yl)oxy)-8,9-dihydrofuro[2,3-h]quinazolin-4-amine] | 11 to 20 | – | 1 to 200 |
| COc1cc2c(N[C@H](C)c3cc(N)cc(C(F)(F)F)c3)nc(C)nc2c2c1CCC2 [Compound 108, (R)—N-(1-(3-amino-5-(trifluoromethyl)phenyl)ethyl)-6-methoxy-2-methyl-8,9-dihydro-7H-cyclopenta[h]quinazolin-4-amine] | 1 to 10 | – | – |
| Cc1nc(NC(C)c2cc(N)cc(C(F)F)c2)c2cc(N3CCOCC3)c3c(c2n1)CCC3 (single isomer, unassigned) [Compound 77, (R/S)—N-(1-(3-amino-5-(difluoromethyl)phenyl)ethyl)-2-methyl-6-morpholino-8,9-dihydro-7H-cyclopenta[h]quinazolin-4-amine] | 1 to 10 | – | 1 to 200 |
| Cc1nc(N[C@H](C)c2cc(N)cc(C(F)(F)F)c2)c2cc(N3CCN(C)CC3)c3c(c2n1)CCC3 [Compound 46, (R)—N-(1-(3-amino-5-(trifluoromethyl)phenyl)ethyl)-2-methyl-6-(4-methylpiperazin-1-yl)-8,9-dihydro-7H-cyclopenta[h]quinazolin-4-amine] | 1 to 10 | – | – |
| Cc1nc(N[C@H](C)c2cc(N)cc(C(F)(F)F)c2)c2cc(N3CCOCC3)c3c(c2n1)CC(C)O3 (single isomer, unassigned) [Compound 117b] | 11 to 20 | – | 1 to 200 |
